The values below are quoted from earlier work in US20220000833A1, “COMPOSITIONS AND METHODS FOR TREATING O[…] APNEA” (THERAPIX BIOSCIENCES LTD., priority 2018, published 2022).

The test system of one data set is patients. Particulars: more than 40 years of clinical research, around 6000 patients, 300-1200 mg a day up to two months.

In the case of `CCCCCc1cc(O)c2c(c1)OC(C)(C)[C@@H]1CCC(C)=C[C@@H]21` [Dronabinol, (−)-Trans-Δ9-tetrahydrocannabinol], in the data set on humans (based on rat studies), the “hypothesized lethal dose in humans” value is 30 mg/kg. For the same compound, the “dose at which serious Dronabinol-associated adverse events in humans have been reported” value in the data set with humans (humans) is 0.4 mg/kg. Moreover, in the data set with humans (intravenous), the “estimated lethal dose in humans” value was 30 mg/kg.

For `CCCCCCCCCCCCCCCC(=O)NCCO` [PEA, N-(2-hydroxyethyl)hexadecanamide], the “safety / side effects in clinical research” value in the data set on patients was “no side effects has ever been reported”.
